Measurements from ChEMBL document CHEMBL6178012, “Discovery of RP-1664: A First-in-Class Orally Bioavailable, Selective PLK4 Inhibitor” (J Med Chem, 2025).

Tests used:
[1] = in vitro; settings: mouse, liver microsomes
[2] = in vitro; settings: rat, liver microsomes
[3] = system: MCF7; assay: cells; settings: Homo sapiens
[4] = in vitro; settings: dog, cryopreserved hepatocytes
[5] = in vivo; settings: cynomolgus monkey, iv, 0.5 mg/kg
[6] = in vitro; settings: rhesus monkey, cryopreserved hepatocytes
[7] = in vitro; settings: mouse, cryopreserved hepatocytes
[8] = in vitro; settings: human, liver microsomes
[9] = in vitro; settings: human, Caco-2
[10] = in vivo; settings: male, Sprague-Dawley, rat, po
[11] = in vivo; settings: female, CD-1, mouse, po, 5 mg/kg
[12] = in vivo; settings: female, CD-1, mouse, iv, 1 mg/kg
[13] = in vitro; settings: rhesus monkey, liver microsomes
[14] = target: T1, Serine/threonine-protein kinase PLK4 (Homo sapiens) (UniProt O00444); settings: Mus musculus; SCID-Beige; CAL-148; dose lower 6.0 mg/kg, dose upper […], route po, time 7.0 day
T1 sequence (whole entry): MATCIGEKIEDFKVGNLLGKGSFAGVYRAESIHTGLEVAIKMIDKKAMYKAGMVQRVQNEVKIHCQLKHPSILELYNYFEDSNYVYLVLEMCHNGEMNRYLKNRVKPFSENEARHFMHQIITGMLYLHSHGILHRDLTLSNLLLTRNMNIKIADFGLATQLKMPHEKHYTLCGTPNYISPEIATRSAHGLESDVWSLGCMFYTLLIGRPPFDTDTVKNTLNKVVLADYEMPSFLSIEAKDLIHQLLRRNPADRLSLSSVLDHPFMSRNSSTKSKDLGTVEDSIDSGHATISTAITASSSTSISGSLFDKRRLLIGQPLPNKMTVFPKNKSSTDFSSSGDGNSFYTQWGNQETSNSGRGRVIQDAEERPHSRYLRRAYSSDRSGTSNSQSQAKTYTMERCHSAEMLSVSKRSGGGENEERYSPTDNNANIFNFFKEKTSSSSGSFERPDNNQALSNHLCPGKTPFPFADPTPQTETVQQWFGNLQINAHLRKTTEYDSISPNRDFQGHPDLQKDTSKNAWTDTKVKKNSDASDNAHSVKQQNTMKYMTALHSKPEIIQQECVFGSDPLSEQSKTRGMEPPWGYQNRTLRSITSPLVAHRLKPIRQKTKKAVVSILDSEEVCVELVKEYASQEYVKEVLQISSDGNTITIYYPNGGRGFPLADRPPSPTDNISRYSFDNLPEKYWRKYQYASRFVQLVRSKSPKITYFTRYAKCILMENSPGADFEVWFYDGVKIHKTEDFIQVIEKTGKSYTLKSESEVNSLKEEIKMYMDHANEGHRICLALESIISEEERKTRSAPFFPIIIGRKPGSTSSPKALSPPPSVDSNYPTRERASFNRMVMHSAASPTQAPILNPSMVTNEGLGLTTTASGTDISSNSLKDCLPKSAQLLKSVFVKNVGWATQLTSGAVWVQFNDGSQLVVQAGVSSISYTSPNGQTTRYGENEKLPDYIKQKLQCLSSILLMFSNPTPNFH

[15] = in vitro; settings: human, Caco-2; remark: listed apart in the source
[16] = in vitro; settings: dog, liver microsomes
[17] = in vivo; settings: male, Beagle, dog, iv, 0.5 mg/kg
[18] = target: T1, Serine/threonine-protein kinase PLK4 (Homo sapiens); settings: Mus musculus; SCID-Beige; CAL-148; dose lower 6.0 mg/kg, dose upper […], route po, time 4.0 day
[19] = in vivo; settings: cynomolgus monkey, po, 1.25 mg/kg
[20] = in vivo; settings: male, Beagle, dog, po, 1.15 mg/kg
[21] = in vitro; settings: human, cryopreserved hepatocytes
[22] = in vitro; settings: rat, cryopreserved hepatocytes
[23] = in vitro; settings: dog, MDCK

## Cc1cc(Nc2nc(N(C)c3c(F)cc(S(C)(=O)=O)cc3F)nc(-c3cn(C)cn3)c2C2CC2)n[nH]1
[1]
  microsomal CLint at 1 µM: < 7.7 µL/min/mg
[2]
  microsomal CLint at 1 µM: < 7.7 µL/min/mg
[3]
  EC50: 0.051 µM
[4]
  hepatocyte CLint at 1 µM: < 3.8 µL/min/1e6 cells
[5]
  clearance at 24 h: 0.84 L/h/kg
[6]
  hepatocyte CLint at 1 µM: < 3.8 µL/min/1e6 cells
[7]
  hepatocyte CLint at 1 µM: < 3.8 µL/min/1e6 cells
[8]
  microsomal CLint at 1 µM: < 7.7 µL/min/mg
[9]
  Papp at […], 10 µM: 46 nm/s
[10]
  bioavailability at 24 h: 28%
[11]
  bioavailability at 24 h: ≥ 100%
[12]
  clearance at 24 h: 0.66 L/h/kg
[13]
  microsomal CLint at 1 µM: < 7.7 µL/min/mg
[14]
  inhibition: Dose-dependent-effect
[15]
  efflux ratio at […], 10 µM: 8.1
[16]
  microsomal CLint at 1 µM: < 7.7 µL/min/mg
[17]
  clearance at 24 h: 1.8 L/h/kg
[18]
  inhibition: Dose-dependent-effect
[19]
  bioavailability at 24 h: 96%
[20]
  bioavailability at 24 h: 98%
[21]
  hepatocyte CLint at 1 µM: < 3.8 µL/min/1e6 cells
[22]
  hepatocyte CLint at 1 µM: < 3.8 µL/min/1e6 cells

## Cc1cc(Nc2nc(N(C)c3c(F)cc(S(C)(=O)=O)cc3F)nc(-c3cn(C)c(C4CC4)n3)c2C2CC2)n[nH]1
[3]
  EC50: 0.034 µM
[9]
  Papp at […], 10 µM: 280 nm/s
[11]
  bioavailability at 24 h: > 100%
[12]
  clearance at 24 h: 0.54 L/h/kg
[15]
  efflux ratio at […], 10 µM: 2.5
[21]
  hepatocyte CLint at 1 µM: 7.5 µL/min/1e6 cells

## C#Cc1cc(Nc2nc(N(C)c3c(F)cc(S(C)(=O)=O)cc3F)nc(-c3cnn(C)c3)c2C2CC2)n[nH]1
[3]
  EC50: 0.23 µM
[21]
  hepatocyte CLint at 1 µM: 20.4 µL/min/1e6 cells

## COc1c(Nc2cc(C)[nH]n2)nc(Sc2ccc(S(C)(=O)=O)cc2F)nc1N1CCOCC1
[1]
  microsomal CLint at 1 µM: 31 µL/min/mg
[23]
  Papp A→B at 2 h, 1 µM: 140 nm/s

## CN(c1nc(Nc2cc(C(F)F)[nH]n2)c(C2CC2)c(-c2cnn(C)c2)n1)c1c(F)cc(S(C)(=O)=O)cc1F
[3]
  EC50: 0.86 µM

## Cc1cc(Nc2nc(N(C)c3c(F)cc(S(C)(=O)=O)cc3F)nc(N3CCOCC3)c2C2CC2)n[nH]1
[3]
  EC50: 0.15 µM
[21]
  hepatocyte CLint at 1 µM: 50.9 µL/min/1e6 cells

## COc1c(Nc2cc(C)[nH]n2)nc(Sc2ccc(S(=O)(=O)Cc3cccc([N+](=O)[O-])c3F)cc2F)nc1N1CCCCC1
[1]
  microsomal CLint at 1 µM: > 416 µL/min/mg
[23]
  Papp A→B at 2 h, 1 µM: 1 nm/s

## Cc1cc(Nc2nc(N(C)c3c(F)cc(S(C)(=O)=O)cc3F)nc(-c3cn(C)nc3C)c2C2CC2)n[nH]1
[3]
  EC50: 0.083 µM
[11]
  bioavailability at 24 h: > 100%
[12]
  clearance at 24 h: 0.6 L/h/kg
[21]
  hepatocyte CLint at 1 µM: 50.1 µL/min/1e6 cells

## Cc1cc(Nc2nc(N(C)c3cc(F)c(S(C)(=O)=O)cc3F)nc(-c3cnn(C)c3)c2C2CC2)n[nH]1
[3]
  EC50: 0.16 µM
[21]
  hepatocyte CLint at 1 µM: 42 µL/min/1e6 cells

## COc1c(Nc2cc(C)[nH]n2)nc(Sc2ccc(S(C)(=O)=O)cc2F)nc1N1CCCCC1
[1]
  microsomal CLint at 1 µM: 47 µL/min/mg
[23]
  Papp A→B at 2 h, 1 µM: 81 nm/s

## Cc1cc(Nc2nc(Nc3ccc(S(C)(=O)=O)cc3F)nc(-c3cnn(C)c3)c2C2CC2)n[nH]1
[3]
  EC50: 1.3 µM

## COc1c(Nc2cc(C)[nH]n2)nc(Sc2ccc(S(C)(=O)=O)cc2F)nc1-c1cnn(C)c1
[1]
  microsomal CLint at 1 µM: < 7.7 µL/min/mg
[3]
  EC50: 0.89 µM

## Cc1cc(Nc2nc(N(C)c3c(F)cc(S(C)(=O)=O)cc3F)nc(-c3cn4c(n3)COCC4)c2C2CC2)n[nH]1
[3]
  EC50: 0.035 µM
[9]
  Papp at […], 10 µM: 120 nm/s
[11]
  bioavailability at 24 h: 40%
[12]
  clearance at 24 h: 0.18 L/h/kg
[15]
  efflux ratio at […], 10 µM: 4.4
[21]
  hepatocyte CLint at 1 µM: < 3.8 µL/min/1e6 cells

## Cc1cc(Nc2nc(N(C)c3c(F)cc(S(C)(=O)=O)cc3F)nc(-c3ccnnc3)c2C2CC2)n[nH]1
[3]
  EC50: 0.092 µM
[21]
  hepatocyte CLint at 1 µM: 51.5 µL/min/1e6 cells

## Cc1cc(Nc2nc(Sc3ccc(S(C)(=O)=O)cc3F)nc(-c3cnn(C)c3)c2C2CC2)n[nH]1
[3]
  EC50: 1.7 µM

## Cc1cc(Nc2nc(N(C)c3c(F)cc(S(C)(=O)=O)cc3F)nc(-c3cnn(C)c3)c2C2CC2)n[nH]1
[3]
  EC50: 0.065 µM
[9]
  Papp at […], 10 µM: 280 nm/s
[11]
  bioavailability at 24 h: > 100%
[12]
  clearance at 24 h: 0.42 L/h/kg
[15]
  efflux ratio at […], 10 µM: 1.1
[21]
  hepatocyte CLint at 1 µM: 5.3 µL/min/1e6 cells

## Cc1cc(Nc2nc(N(C)c3ccc(S(C)(=O)=O)cc3F)nc(-c3cnn(C)c3)c2C2CC2)n[nH]1
[3]
  EC50: 0.43 µM

## Cc1cc(Nc2nc(N(C)c3ccc(S(=O)(=O)C4CC4)cc3F)nc(-c3cnn(C)c3)c2C2CC2)n[nH]1
[3]
  EC50: 0.21 µM
[21]
  hepatocyte CLint at 1 µM: 8.2 µL/min/1e6 cells

## Cc1cc(Nc2nc(N(C)c3c(F)cc(S(C)(=O)=O)cc3F)nc(-c3cn(C)nc3CO)c2C2CC2)n[nH]1
[21]
  hepatocyte CLint at 1 µM: 12.8 µL/min/1e6 cells

## Cc1cc(Nc2nc(N(C)c3c(F)cc(S(C)(=O)=O)c(F)c3F)nc(-c3cnn(C)c3)c2C2CC2)n[nH]1
[3]
  EC50: 0.067 µM

## Cc1cc(Nc2nc(N(C)c3ccc(S(C)(=O)=O)cc3Cl)nc(-c3cnn(C)c3)c2C2CC2)n[nH]1
[3]
  EC50: 0.18 µM

## CN(c1nc(Nc2cc(C3CC3)[nH]n2)c(C2CC2)c(-c2cnn(C)c2)n1)c1c(F)cc(S(C)(=O)=O)cc1F
[3]
  EC50: 0.057 µM
[21]
  hepatocyte CLint at 1 µM: 12 µL/min/1e6 cells

## Cc1cc(Nc2nc(Oc3ccc(S(C)(=O)=O)cc3F)nc(-c3cnn(C)c3)c2C2CC2)n[nH]1
[3]
  EC50: 2.5 µM

## Cc1cc(Nc2nc(N(C)c3c(F)cc(S(C)(=O)=O)cc3F)nc(-c3cc(C(C)(C)O)n(C)n3)c2C2CC2)n[nH]1
[3]
  EC50: 0.023 µM
[9]
  Papp at […], 10 µM: 78 nm/s
[11]
  bioavailability at 24 h: 55%
[12]
  clearance at 24 h: 0.72 L/h/kg
[15]
  efflux ratio at […], 10 µM: 6.9
[21]
  hepatocyte CLint at 1 µM: 6 µL/min/1e6 cells

## Cc1cc(Nc2nc(N(C)c3c(F)cc(S(C)(=O)=O)cc3F)nc(-c3cnn(C)c3CO)c2C2CC2)n[nH]1
[3]
  EC50: 0.14 µM
[11]
  bioavailability at 24 h: 23%
[12]
  clearance at 24 h: 0.9 L/h/kg
[21]
  hepatocyte CLint at 1 µM: 6 µL/min/1e6 cells

## Cc1cc(Nc2nc(N(C)c3c(F)cc(S(N)(=O)=O)cc3F)nc(-c3cnn(C)c3)c2C2CC2)n[nH]1
[21]
  hepatocyte CLint at 1 µM: 19.4 µL/min/1e6 cells

## COc1c(Nc2cc(C)[nH]n2)nc(Sc2ccc(S(C)(=O)=O)cc2)nc1-c1cnn(C)c1
[1]
  microsomal CLint at 1 µM: < 7.7 µL/min/mg
